{"source": "paper PMC5689168", "about": "(Biochemistry and Biophysics Reports, 2016)", "key": {"[1]": {"target": "α1β1γ2 GABAA receptors (Rattus norvegicus, UniProt P15431+P62813)", "sequence (P62813 28-455)": "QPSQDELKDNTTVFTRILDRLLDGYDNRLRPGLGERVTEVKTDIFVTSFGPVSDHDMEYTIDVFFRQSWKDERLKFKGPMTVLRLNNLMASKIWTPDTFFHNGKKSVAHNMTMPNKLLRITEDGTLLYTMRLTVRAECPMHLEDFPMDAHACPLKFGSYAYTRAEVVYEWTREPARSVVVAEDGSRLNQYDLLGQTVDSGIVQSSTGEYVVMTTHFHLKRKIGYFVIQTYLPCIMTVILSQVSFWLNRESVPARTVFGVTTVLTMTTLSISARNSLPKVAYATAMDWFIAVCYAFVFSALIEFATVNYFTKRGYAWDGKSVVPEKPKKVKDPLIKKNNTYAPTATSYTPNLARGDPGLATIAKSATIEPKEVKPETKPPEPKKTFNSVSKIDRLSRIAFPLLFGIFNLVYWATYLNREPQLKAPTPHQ", "sequence (P15431 26-474)": "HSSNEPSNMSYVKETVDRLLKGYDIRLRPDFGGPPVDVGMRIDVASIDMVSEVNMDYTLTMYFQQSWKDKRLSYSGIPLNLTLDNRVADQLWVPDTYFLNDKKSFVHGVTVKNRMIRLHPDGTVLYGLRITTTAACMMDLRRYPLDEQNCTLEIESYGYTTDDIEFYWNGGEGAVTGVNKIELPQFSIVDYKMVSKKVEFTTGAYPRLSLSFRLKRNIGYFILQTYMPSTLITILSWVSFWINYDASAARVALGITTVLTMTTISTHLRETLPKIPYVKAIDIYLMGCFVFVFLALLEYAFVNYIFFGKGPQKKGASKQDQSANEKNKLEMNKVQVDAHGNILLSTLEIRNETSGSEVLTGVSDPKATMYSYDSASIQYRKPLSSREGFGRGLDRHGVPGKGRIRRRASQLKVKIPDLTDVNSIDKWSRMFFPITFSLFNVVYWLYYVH", "sequence (P22723 39-474 partner)": "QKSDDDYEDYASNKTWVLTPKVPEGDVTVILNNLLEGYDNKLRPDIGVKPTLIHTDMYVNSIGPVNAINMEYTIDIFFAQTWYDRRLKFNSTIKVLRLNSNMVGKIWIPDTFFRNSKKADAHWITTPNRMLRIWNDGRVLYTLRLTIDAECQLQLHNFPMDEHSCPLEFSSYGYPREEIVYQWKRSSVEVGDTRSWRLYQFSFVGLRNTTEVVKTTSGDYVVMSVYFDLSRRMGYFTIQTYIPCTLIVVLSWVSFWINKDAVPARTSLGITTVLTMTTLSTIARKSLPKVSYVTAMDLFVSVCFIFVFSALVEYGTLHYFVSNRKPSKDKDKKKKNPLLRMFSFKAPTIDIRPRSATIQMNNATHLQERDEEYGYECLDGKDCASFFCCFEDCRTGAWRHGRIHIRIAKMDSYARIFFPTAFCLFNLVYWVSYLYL", "format": "cell-based, rat α1, rat β1, murine γ2"}, "[2]": {"test_system": "5HT3A receptor", "details": "cited from earlier work"}, "[3]": {"target": "α1β2(M286W)γ2 GABAA receptors (Rattus norvegicus, UniProt P62813+P63138, M310W)", "sequence (P62813 28-455)": "as the sequence (P62813 28-455) above", "sequence (P63138 25-474 M310W limits assumed)": "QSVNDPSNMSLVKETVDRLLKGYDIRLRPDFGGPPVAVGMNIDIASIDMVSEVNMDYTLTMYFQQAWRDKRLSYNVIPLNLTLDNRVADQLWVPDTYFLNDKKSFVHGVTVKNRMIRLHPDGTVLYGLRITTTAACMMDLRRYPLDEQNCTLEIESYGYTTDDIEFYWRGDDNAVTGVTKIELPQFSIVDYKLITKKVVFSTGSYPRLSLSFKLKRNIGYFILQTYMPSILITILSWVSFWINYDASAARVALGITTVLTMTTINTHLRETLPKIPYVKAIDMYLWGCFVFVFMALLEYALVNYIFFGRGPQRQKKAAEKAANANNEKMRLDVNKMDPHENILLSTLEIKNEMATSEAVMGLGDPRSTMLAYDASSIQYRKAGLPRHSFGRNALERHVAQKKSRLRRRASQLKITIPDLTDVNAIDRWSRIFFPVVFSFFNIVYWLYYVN", "sequence (P22723 39-474 partner)": "as the sequence (P22723 39-474 partner) above", "test": "Two-electrode voltage clamp on Xenopus laevis oocytes expressing mutant α1β2", "format": "cell-based, rat α1, rat β2, murine γ2"}, "[4]": {"details": "cited from earlier work"}, "[5]": {"target": "α1β2 GABAA receptor (Rattus norvegicus, UniProt P62813+P63138)", "sequence (P62813 28-455)": "as the sequence (P62813 28-455) above", "sequence (P63138 25-474 limits assumed)": "as the sequence (P63138 25-474 M310W limits assumed) above, with W286M counted along it", "format": "cell-based, rat α1, rat β2"}, "[6]": {"target": "α1β2(N265M)γ2 GABAA receptors (Rattus norvegicus, UniProt P62813+P63138, N289M)", "sequence (P62813 28-455)": "as the sequence (P62813 28-455) above", "sequence (P63138 25-474 N289M limits assumed)": "as the sequence (P63138 25-474 M310W limits assumed) above, with N265M, W286M counted along it", "sequence (P22723 39-474 partner)": "as the sequence (P22723 39-474 partner) above", "test": "Two-electrode voltage clamp on Xenopus laevis oocytes expressing mutant α1β2", "format": "cell-based, rat α1, rat β2, murine γ2"}, "[7]": {"target": "α1β3γ2 GABAA receptors (UniProt P28472+P62813)", "sequence (P62813 28-455)": "as the sequence (P62813 28-455) above", "sequence (P28472 26-473)": "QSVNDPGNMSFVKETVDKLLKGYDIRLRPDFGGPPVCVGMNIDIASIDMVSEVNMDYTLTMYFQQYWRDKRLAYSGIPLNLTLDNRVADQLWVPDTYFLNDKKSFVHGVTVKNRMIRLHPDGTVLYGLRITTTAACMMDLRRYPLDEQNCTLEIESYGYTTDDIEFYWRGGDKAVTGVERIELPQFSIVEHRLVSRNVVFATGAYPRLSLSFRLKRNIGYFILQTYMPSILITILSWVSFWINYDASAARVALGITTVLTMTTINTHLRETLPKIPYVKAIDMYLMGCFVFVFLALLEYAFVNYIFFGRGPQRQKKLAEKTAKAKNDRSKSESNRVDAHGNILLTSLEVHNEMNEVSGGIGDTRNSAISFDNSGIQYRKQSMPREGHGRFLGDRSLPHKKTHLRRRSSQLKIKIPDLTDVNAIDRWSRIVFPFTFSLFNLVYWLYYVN", "sequence (P22723 39-474 partner)": "as the sequence (P22723 39-474 partner) above", "format": "cell-based, rat α1, human β3, murine γ2"}, "[8]": {"target": "α1β2γ2 GABAA receptors (Rattus norvegicus, UniProt P62813+P63138)", "sequence (P62813 28-455)": "as the sequence (P62813 28-455) above", "sequence (P63138 25-474 limits assumed)": "as the sequence (P63138 25-474 M310W limits assumed) above, with W286M counted along it", "sequence (P22723 39-474 partner)": "as the sequence (P22723 39-474 partner) above", "format": "cell-based, rat α1, rat β2, murine γ2"}, "[9]": {"target": "α1β2γ2 receptors", "details": "read-out: EC50 for potentiation; cited from earlier work"}}, "note": "Where “and” joins values, the source holds several entries; their conditions need not be identical. Equal values may be shown once. Entries after “also recorded” stand apart in the source; their conditions may differ. Read-outs that look alike come from different tables or passages of the source."}
{"smiles": "CC1(C)C=Cc2c(ccc3c2OC[C@@H](c2ccc(O)cc2O)C3)O1", "note": "[glabridin]", "values": [{"measurement": "EC50", "setting": "[1]", "value": "17.2 ± 2.64", "unit": "µM"}, {"measurement": "Fold decrease of GABA EC50", "setting": "[1]; α1β1γ2, 30 µM glabridin", "value": 4.4, "unit": "fold"}, {"measurement": "Direct activation by 30 µM glabridin", "setting": "[1]; α1β1γ2, 30 µM glabridin in the absence of GABA, normalized to GABA current", "value": "0.14±0.08"}, {"measurement": "Fold potentiation by 30 µM glabridin", "setting": "[1]; α1β1γ2, 30 µM glabridin, 1 µM GABA", "value": "5.07±1.45", "unit": "fold"}, {"measurement": "Action on 5HT3A receptor channel", "setting": "[2]", "value": "blocker of the channel"}, {"measurement": "Fold decrease of GABA EC50", "setting": "[3]; 30 µM glabridin", "value": 0.75, "unit": "fold"}, {"measurement": "Fold potentiation by 30 µM glabridin", "setting": "[3]; 30 µM glabridin, 3 µM GABA", "value": "1.04±0.05", "unit": "fold"}, {"measurement": "Modulatory EC50", "setting": "[3]; potentiation of current evoked by 3 µM GABA", "value": "Neither a potentiating effect nor any shift; also recorded: no potentiation"}, {"measurement": "Crossing of the blood-brain-barrier", "setting": "[4]", "value": "able to cross the blood-brain-barrier"}, {"measurement": "EC50", "setting": "[5]", "value": "9.63 ± 0.7", "unit": "µM"}, {"measurement": "Fold decrease of GABA EC50", "setting": "[5]; α1β2, 30 µM glabridin", "value": 1.8, "unit": "fold"}, {"measurement": "Direct activation by 30 µM glabridin", "setting": "[5]; α1β2, 30 µM glabridin in the absence of GABA, normalized to GABA current", "value": "0.11±0.05"}, {"measurement": "Fold potentiation by 30 µM glabridin", "setting": "[5]; α1β2, 30 µM glabridin, 3 µM GABA", "value": "4.23±0.56", "unit": "fold"}, {"measurement": "EC50", "setting": "[6]", "value": "32.6 ± 1.52", "unit": "µM"}, {"measurement": "Fold decrease of GABA EC50", "setting": "[6]; α1β2(N265M)γ2, 30 µM glabridin", "value": 3.5, "unit": "fold"}, {"measurement": "EC50", "setting": "[7]", "value": "6.83 ± 3.07", "unit": "µM"}, {"measurement": "Fold decrease of GABA EC50", "setting": "[7]; α1β3γ2, 30 µM glabridin", "value": 6.8, "unit": "fold"}, {"measurement": "Direct activation by 30 µM glabridin", "setting": "[7]; α1β3γ2, 30 µM glabridin in the absence of GABA, normalized to GABA current", "value": "0.08±0.04"}, {"measurement": "Fold potentiation by 30 µM glabridin", "setting": "[7]; α1β3γ2, 30 µM glabridin, 10 µM GABA", "value": "2.63±0.42", "unit": "fold"}, {"measurement": "EC50", "setting": "[8]; Modulatory EC50, α1β2γ2, potentiation of current evoked by 3 µM GABA", "value": "6 µM and 6.3 µM"}, {"measurement": "Concentration at which potentiation of GABA-induced currents starts", "setting": "[8]; α1β2γ2, 3 µM GABA", "value": 1, "unit": "µM"}, {"measurement": "Concentration of maximal potentiation", "setting": "[8]; α1β2γ2, 3 µM GABA", "value": "approximately 30 µM"}, {"measurement": "Potentiating action of 30 µM glabridin in the presence of flumazenil", "setting": "[8]; α1β2γ2, 3 µM GABA, 30 µM glabridin, 1 µM flumazenil", "value": "not significantly altered"}, {"measurement": "Fold decrease of GABA EC50", "setting": "[8]; α1β2γ2, 30 µM glabridin", "value": "12 fold and 12.3 fold"}, {"measurement": "Direct activation by 30 µM glabridin", "setting": "[8]; α1β2γ2, 30 µM glabridin in the absence of GABA, normalized to GABA current", "value": "0.07±0.02"}, {"measurement": "Fold potentiation by 30 µM glabridin", "setting": "[8]; α1β2γ2, 30 µM glabridin, 3 µM GABA", "value": "6.20±1.41", "unit": "fold"}, {"measurement": "Fold decrease of GABA EC50", "setting": "[8]; α1β2γ2, 30 µM glabridin, listed as Glabridin", "value": "approximately 12 fold"}, {"measurement": "Direct activation, share of the maximally evoked current by saturating GABA concentrations", "setting": "[8]; α1β2γ2, 100 µM glabridin in the absence of GABA, n=4", "value": "up to 17±7%"}, {"measurement": "Screening for potentiation of GABA-induced currents", "setting": "[8]; α1β2γ2, components of Glycyrrhiza at 10 µM, n=3–4", "value": "the only potentiator of the tested substances"}, {"measurement": "Direct activation at lower concentrations", "setting": "[8]; α1β2γ2, glabridin up to 10 µM in the absence of GABA", "value": "failed to activate"}, {"measurement": "Threshold concentration for direct activation", "setting": "[8]; α1β2γ2, in the absence of GABA", "value": 30, "unit": "µM"}, {"measurement": "Maximally induced current evoked by 1 mM GABA", "setting": "[8]; α1β2γ2, with 30 µM glabridin, p=0.055, n=4", "value": "not significantly altered"}]}
{"smiles": "CC(C)c1cccc(C(C)C)c1O", "note": "[propofol]", "values": [{"measurement": "EC50", "setting": "[9]", "value": "~2", "unit": "µM"}]}
